The source of these data is patent US4036984A, “Soil fungi inhibiting agent” (Nissan Chemical Industries, Ltd., priority 1974, dated 1977).

The subject of data set [1] is Fusarium oxysporum f. cucumerinum. Nature of the data set: Fungicidal test by agar dilution method (colony diameter). The class given is cell-based. Particulars: for diameter of the colony: 4 days, 25° C., PSA medium; for growth / inhibition of colony compared with the control: 250-1000 ppm. Here is the method:
Reference -- Fungicidal Test by Agar Dilution Method
100 mg of the invented compound was taken in a 30 ml conical flask, to which a drop of 1:1 mixture of Solpol 2680 (surface-active agent produced by Toho Kagaku) and xylene (about 25 mg), and 1 ml of acetone were added to dissolve therein. On the other hand, 9 ml of sterilized water separately was further added to emulsify, thereby yielding an emulsion of 10,000 ppm concentration. From this emulsion an emulsion of 5,000 ppm and one of 2,500 ppm were prepared through two times dilution.
In a 100 ml conical flask, 3 ml portion each of these emulsions was taken; 27 ml of potato-sucrose-agar (PSA) medium, at 50°-60° C. was added and uniformly blended. Ten ml of the obtained mixture was poured and hardened on a 10 cm-diameter petri dish.
Meanwhile, a colony of Fusarium oxysporum f. cucumerinum separately cultivated on potato-sucrose-agar (PSA) medium was stamped out by a 4mm-diameter cork-borer and inoculated on the above-mentioned mixed medium. After 4 days of cultivation in a chamber of 25° C., the diameter of the colony was measured, the results being summarized in Table 2. A case of the colony not having grown is indicated by the sign (-).

Data set [2] has the same test system. In words: Test 1: control of Fusarium wilt of cucumber (powder, pot test). Particulars: soil treatment 500 mg (5% powder) and additional irrigation 500 ppm, fourth week of transplanting. The class given is in vivo. The method, then: Test of effect of fungicide on control of Fusarium wilt of cucumber (in case of using powder) Fusarium oxysporum f. cucumerinum which had been cultivated for 1 month at 25° C. on soil-bran medium was air-dried overnight and sifted through a 3mm-mesh sieve. 10g of said culture soil was blended with 600g of sterilized diluvial soil. To 200g of this blended soil were added 1200g of sterilized diluvial soil (containing 2.65 weight % of compost) and 1000mg or 500mg of 5% powder of the invented compound; and these were uniformly mixed in a vat. Next, 1500g of sterilized diluvial soil (containing compost) was placed in a wagner pot of 1/5000 are over which was spread the soil prepared above. Cucumber seedlings of one-leaf stage (variety: "Shimoshirazujibai") which had been cultivated separately in styrol cups in a greenhouse were transplanted into said wagner pot. Each of said cucumber seedlings was singly planted in 200g of the soil placed in said styrol cup and three days before its transplanting, 20 ml of an emulsion of each compound in 300 ppm concentration was irrigated over the soil. In the case of a pot whose soil had been treated with 1000 mg of the compound (5% powder), 14 days after transplanting, 50 ml of an emulsion of the compound in 1000 ppm concentration was additionally irrigated (Test I) and in the case of a pot whose soil had been treated with 500mg of the compound (5% powder), 50 ml of an emulsion of the compound in 500 ppm concentration was additionally irrigated (Test II). The pots were all kept in a greenhouse, and the test was carried out on lots each containing three pots, each pot holding four seedlings.
Every 2 days the withered seedlings were counted and in the fourth week of transplanting, the browning degree of vascular in each seedling was measured; and the effectiveness rating was determined as follows; [formula] (Note)* Fusarium lot is a treated lot containing only Fusarium oxysporum f. cucumerinum.
Sick score is obtained as follows:
Sick score = 3 × a + 2 × b + 1 × c + 0.5 × d + 0 […]
a -- number of withered seedlings b -- number of seedlings in which the browning of vascular has reached the cotyledon part c -- number of seedlings in which the browning of vascular is short of the cotyledon part d -- number of seedlings in which only brown spots have been recognized e -- number of perfectly sound seedlings a + b + c + d + e = 12

Data set [3] shares this test system. Nature of the data set: Test 6: control of Fusarium wilt of cucumber by spraying stalks and leaves. Particulars: stalks and leaves sprayed with 2000 ppm, third week of transplanting. The class given is in vivo. The method, then: Test of effect of fungicide on control of Fusarium wilt of cucumber, by spraying stalks and leaves with compound.
Fusarium oxysporum f. cucumerinum which had been cultivated for 1 month at 25° C. on soil-bran medium was air-dried overnight and then sifted through a 3mm-mesh sieve.
Next, 1500 g of sterilized diluvial soil (containing compost) was placed in a Wagner pot of 1/5000a, over which the soil prepared above was spread. Cucumber seedlings of one-leaf stage (variety: "Shimoshiraznjibai") which had been separately grown in styrol cups in a greenhouse were transplanted into said Wagner pot. Each of said cucumber seedlings was singly grown in a styrol cup with 200 g of soil. Seven days before it was transplanted, it was sprayed with a 2000 ppm solution of each compound until the stalks and leaves were completely wet.
Just after transplanting and at the end of each week after transplanting, the seedling was sprinkled until completely wet with a 2000 ppm solution of the compound. All the pots were kept in the greenhouse. The test was carried out on lots of three pots each with each pot holding four seedlings.
In the third week of transplanting all the seedlings were checked for the browning of vascular and in the same way as in Test 1.

The test system of a further data set is rats. The following applies: cited from earlier work.
For data set [4] the following is noted: in vivo; cited from earlier work.
Data set [5] concerns pests like fleas, mosquitoes etc. Particulars: cited from earlier work.
Data set [6] relates to Fusarium oxysporum f. cucumerinum. Nature of the data set: Fungicidal test by agar dilution method (colony diameter). The class given is cell-based. The following applies: 2.5, 5 and 10 ppm.
Data set [7] has the same test system. Nature of the data set: Test 2: control of Fusarium wilt of cucumber (emulsion, pot test). The class given is in vivo. The following applies: emulsion irrigated 300 ppm, then 1000 ppm twice, third week of transplanting.
Description: Test of effect of fungicide on control of Fusarium wilt of cucumber (in case of using emulsion).
Fusarium oxysporum f. cucumerinum which had been cultivated for 1 month at 25° C. on soil-bran medium was air-dried overnight and then sifted through a 3 mm-mesh sieve. 15g of said culture soil and 600g of sterilized diluvial soil were blended together.
Next, 1500g of sterilized diluvial soil (containing compost) was placed in a Wagner pot of 1/5000 are, over which the soil prepared above was spread. Cucumber seedlings of one-leaf stage (variety: "Shimoshirazujibai") which had been separately cultivated in styrol cups in a greenhouse were transplanted into said Wagner pot. Each of said cucumber seedlings was singly grown in a styrol cup with 200g of soil. Seven days before it was transplanted, 20 ml of an emulsion of each compound in 300 ppm was irrigated over the soil. Just after transplanting and two weeks after transplanting 50 ml of an emulsion of the compound in 1000 ppm was additionally irrigated. All pots were kept in the greenhouse, the test being carried out on lots each containing three pots and each pot holding four seedlings.
In the third week of transplanting all the seedlings were checked for the browning degree of vascular and in the same way as in Test 1, the effectiveness rating and the sick score were determined.
In a further data set the test system is genus Bacillus. Particulars: 2000 ppm; cited from earlier work.
In the next data set the test system is Escherichia coli. Particulars: 2000 ppm; cited from earlier work.
The test system of data set [8] is Micrococcus pyogenes var. aureus. Particulars: 2000 ppm; cited from earlier work.

On to `CC(=O)OCCOc1ccccc1` [Compound No. 2], for which the entries for the “diameter of the colony” value in data set [1] (250 ppm) and in data set [1] (500 ppm) were 37 mm and 26 mm, respectively. In addition, the “Effectiveness Rating II” value in data set [2] amounted to 80. For the same molecule, the “Effectiveness Rating, 2000 ppm” value in [3] is reported as 67. Further, the “LD50, acute oral toxicity” value in the data set on rats was 4900 mg/kg. Also, the “skin cancer” value in [4] is “not likely to cause skin cancer”. Further, the “repellency” value in [5] is “feebly repellant”.
Consider `CC(C)C(=O)C(=O)OCCOc1ccccc1` [Compound No. 45, β-phenoxyethyl 2-oxo-3-methyl-butanoate], for which the “Effectiveness Rating, 2000 ppm” value in [3] was 76.
On to `CC(C)(O)CC(=O)OCCOc1ccccc1` [compound 37], for which, in data set [3], the “Effectiveness Rating, 2000 ppm” value was 40.
Consider `CCCCNC(=O)n1c(NC(=O)OC)nc2ccccc21` [Benomyl, methyl-1-(butylcarbamonyl)-2-benzimidazolcarbamate, reference compound], for which the “Effectiveness Rating II” value in data set [2] is 44. For the same molecule, the “growth of the colony” value in [6] was “no growth of the colony was evident”.
For `CCCCCC(=O)OCCOc1ccccc1` [compound 9], the results for the “diameter of the colony” value in [1] (250 ppm), in data set [1] (500 ppm) and in data set [1] (1000 ppm) were 33 mm, 30 mm and 22 mm, respectively.
Consider `CCCCCCC(=O)OCCOc1ccccc1` [compound 10], for which the “diameter of the colony” value in data set [1] (250 ppm) is given as 33 mm; in data set [1] (500 ppm) it was 28 mm; in [1] (1000 ppm), 24 mm.
`CC(CC(=O)OCCOc1ccccc1)CC(C)(C)C` (stereo not shown) [compound 14]: the “diameter of the colony” value in data set [1] (250 ppm) is reported as 38 mm; in [1] (500 ppm) it was 38 mm; in data set [1] (1000 ppm), 35 mm.
As for `CSCC(=O)OCCOc1ccccc1` [Compound No. 67, β-phenoxyethyl S-methylglycolate], the “Effectiveness Rating” value in [7] was 89.
With `CCC(=O)OCCOc1ccccc1` [Compound No. 3], the “diameter of the colony” value in [1] (250 ppm) was found to be 25 mm; in data set [1] (500 ppm), 20 mm; in data set [1] (1000 ppm), 9 mm. In addition, the “Effectiveness Rating II” value in [2] is 32.
For the molecule `CCCC(=O)OCCOc1ccccc1` [Compound No. 4], the “diameter of the colony” value in data set [1] (250 ppm) turned out to be 32 mm; in data set [1] (500 ppm) it was 27 mm; in [1] (1000 ppm) it was 22 mm. The “Effectiveness Rating II” value in data set [2] is given as 30.
For the molecule `CC(C)=CC(=O)OCCSc1ccccc1` [compound 74], in [3], the “Effectiveness Rating, 2000 ppm” value worked out at 62.
As for `C=CC(=O)OCCOc1ccccc1` [Compound No. 23, β-phenoxyethylacrylate], the “Effectiveness Rating, 2000 ppm” value in data set [3] amounted to 30.
In the case of `CCCCCCCCCC(=O)OCCOc1ccccc1` [compound 12], the “growth / inhibition of colony compared with the control” value in [1] is “same growth as the control”. Moreover, the “diameter of the colony” value in [1] (250 ppm) turned out to be 46 mm; in data set [1] (500 ppm) it was 41 mm; in data set [1] (1000 ppm) it was 38 mm.
As to `CCCCCCCC(=O)OCCOc1ccccc1` [compound 11], the “diameter of the colony” value is 36 mm in data set [1] (250 ppm), 32 mm in data set [1] (500 ppm) and 29 mm in data set [1] (1000 ppm).
For the molecule `CC(C)C(=O)OCCOc1ccccc1` [Compound No. 5], the “diameter of the colony” value in data set [1] (250 ppm) is given as 30 mm; in [1] (500 ppm), 23 mm; in [1] (1000 ppm) it was 17 mm. In addition, the “bactericidal effect” value (in the data set with genus Bacillus; with Escherichia coli; in data set [8]) was “non-bactericidal” throughout.
`O=COCCOc1ccccc1` [Compound No. 1]: the “diameter of the colony” value in [1] (250 ppm) was found to be 40 mm; in data set [1] (500 ppm), 30 mm; in [1] (1000 ppm) it was 10 mm.
For the molecule `CCCCCCCCCCCC(=O)OCCOc1ccccc1` [compound 13], the “growth / inhibition of colony compared with the control” value in data set [1] is given as “same growth as the control”. Besides, the “diameter of the colony” value is given as 49 mm in data set [1] (250 ppm), 45 mm in data set [1] (500 ppm) and 40 mm in data set [1] (1000 ppm).
Take `CCCCC(=O)OCCOc1ccccc1` [Compound No. 6]: the “diameter of the colony” value was 31 mm in [1] (250 ppm), 26 mm in data set [1] (500 ppm) and 22 mm in data set [1] (1000 ppm).
With `CC(C)CC(=O)OCCOc1ccccc1` [Compound No. 8], the “diameter of the colony” value in data set [1] (250 ppm) came to 24 mm; in data set [1] (500 ppm) it was 19 mm; in data set [1] (1000 ppm) it was 15 mm. The “Effectiveness Rating II” value in data set [2] worked out at 50.
As for `CCC(C)C(=O)OCCOc1ccccc1` (stereo not shown) [Compound No. 7], the “diameter of the colony” value amounted to 25 mm in [1] (250 ppm), 23 mm in data set [1] (500 ppm) and 16 mm in data set [1] (1000 ppm).
For `CC(C)(C)C(=O)OCCOc1ccccc1` [compound 15], in that order: 19 mm, 17 mm and 13 mm.
